Experimental data as given in ChEMBL document CHEMBL3885861, “Open TG-GATES”.

Species on record: Rattus norvegicus
Experiment: Open TG-GATES - Regimen: Single
Type: toxicity, organism-based, Sprague-Dawley
Design: regimen Single, gender Male, age 6 weeks
Details: in vivo, po, 10 mg/kg, route gavage, dose level Low; for APTT / Bas / Eos / Fbg / Hb / Ht / Lym / MCH / MCHC / MCV / Mono / Neu / PT / Plat / RBC / Ret / WBC: tissue Blood; for KIDNEY_L / KIDNEY_R / KIDNEY_TOTAL: tissue Kidney; for LIVER: tissue Liver; for ALP / ALT / AST / BUN / CRE / Ca / Cl / DBIL / GLC / IP / K / LDH / Na / PL / RALB / TBIL / TC / TG / TP / gamma-GTP: tissue Plasma

COc1cc([C@@H]2c3cc4c(cc3[C@@H](O[C@@H]3O[C@@H]5CO[C@@H](C)O[C@H]5[C@H](O)[C@H]3O)[C@H]3COC(=O)[C@H]23)OCO4)cc(OC)c1O [ETOPOSIDE]
TERMINAL_BW (3 h): 200.9 g | APTT (3 h): 16.9 s | Bas (3 h): 0% | Eos (3 h): 1.2% | Fbg (3 h): 201 mg/dL | Hb (3 h): 13.4 g/dL | Ht (3 h): 39.9% | Lym (3 h): 76.4% | MCH (3 h): 22.1 pg | MCHC (3 h): 33.7% | MCV (3 h): 65.7 fL | Mono (3 h): 8% | Neu (3 h): 14.8% | PT (3 h): 12.3 s | Plat (3 h): 115.3 x10_4/uL | RBC (3 h): 606.6 x10_4/ul | Ret (3 h): 10.2% | WBC (3 h): 99.6 x10_2/uL | KIDNEY_L (3 h): 0.9 g | KIDNEY_R (3 h): 0.9 g | KIDNEY_TOTAL (3 h): 1.9 g | LIVER (3 h): 9.4 g | ALP (3 h): 896.4 IU/L | ALT (3 h): 34.2 IU/L | AST (3 h): 67.2 IU/L | BUN (3 h): 13 mg/dL | CRE (3 h): 0.5 mg/dL | Ca (3 h): 10.7 mg/dL | Cl (3 h): 104.6 meq/L | DBIL (3 h): 0.012 mg/dL | GLC (3 h): 192.8 mg/dL | IP (3 h): 9 mg/dL | K (3 h): 4.5 meq/L | LDH (3 h): 114.2 IU/L | Na (3 h): 141.8 meq/L | PL (3 h): 134 mg/dL | RALB (3 h): 3.5 g/dL | TBIL (3 h): 0.3 mg/dL | TC (3 h): 75.8 mg/dL | TG (3 h): 46.4 mg/dL | TP (3 h): 5.4 g/dL | gamma-GTP (3 h): 2 IU/L | TERMINAL_BW (6 h): 198.3 g | APTT (6 h): 16.9 s | Bas (6 h): 0% | Eos (6 h): 1% | Fbg (6 h): 194.4 mg/dL | Hb (6 h): 13.6 g/dL | Ht (6 h): 40.8% | Lym (6 h): 79.8% | MCH (6 h): 21.6 pg | MCHC (6 h): 33.3% | MCV (6 h): 64.9 fL | Mono (6 h): 6.4% | Neu (6 h): 13.2% | PT (6 h): 11.8 s | Plat (6 h): 110.4 x10_4/uL | RBC (6 h): 629.6 x10_4/ul | Ret (6 h): 9.8% | WBC (6 h): 78.9 x10_2/uL | KIDNEY_L (6 h): 1 g | KIDNEY_R (6 h): 1 g | KIDNEY_TOTAL (6 h): 2 g | LIVER (6 h): 8.6 g | ALP (6 h): 862.6 IU/L | ALT (6 h): 35 IU/L | AST (6 h): 66.8 IU/L | BUN (6 h): 10.8 mg/dL | CRE (6 h): 0.6 mg/dL | Ca (6 h): 10.5 mg/dL | Cl (6 h): 104.4 meq/L | DBIL (6 h): 0.02 mg/dL | GLC (6 h): 195.4 mg/dL | IP (6 h): 10.2 mg/dL | K (6 h): 4.6 meq/L | LDH (6 h): 99.4 IU/L | Na (6 h): 142 meq/L | PL (6 h): 128 mg/dL | RALB (6 h): 3.3 g/dL | TBIL (6 h): 0.4 mg/dL | TC (6 h): 72.2 mg/dL | TG (6 h): 42.6 mg/dL | TP (6 h): 5.2 g/dL | gamma-GTP (6 h): 0.8 IU/L | TERMINAL_BW (9 h): 198.7 g | APTT (9 h): 16.8 s | Bas (9 h): 0% | Eos (9 h): 0.6% | Fbg (9 h): 184.6 mg/dL | Hb (9 h): 13.5 g/dL | Ht (9 h): 39.7% | Lym (9 h): 77% | MCH (9 h): 22.1 pg | MCHC (9 h): 33.9% | MCV (9 h): 65.1 fL | Mono (9 h): 6.8% | Neu (9 h): 15.8% | PT (9 h): 11 s | Plat (9 h): 113.8 x10_4/uL | RBC (9 h): 611 x10_4/ul | Ret (9 h): 8.6% | WBC (9 h): 75.9 x10_2/uL | KIDNEY_L (9 h): 0.9 g | KIDNEY_R (9 h): 1 g | KIDNEY_TOTAL (9 h): 1.9 g | LIVER (9 h): 8.1 g | ALP (9 h): 777.2 IU/L | ALT (9 h): 32.8 IU/L | AST (9 h): 64.6 IU/L | BUN (9 h): 10.2 mg/dL | CRE (9 h): 0.6 mg/dL | Ca (9 h): 10.6 mg/dL | Cl (9 h): 105.6 meq/L | DBIL (9 h): 0.036 mg/dL | GLC (9 h): 198.8 mg/dL | IP (9 h): 10.4 mg/dL | K (9 h): 4.6 meq/L | LDH (9 h): 74.6 IU/L | Na (9 h): 143.4 meq/L | PL (9 h): 127.2 mg/dL | RALB (9 h): 3.4 g/dL | TBIL (9 h): 0.4 mg/dL | TC (9 h): 70.8 mg/dL | TG (9 h): 35.2 mg/dL | TP (9 h): 5.3 g/dL | gamma-GTP (9 h): 1.6 IU/L | TERMINAL_BW (24 h): 209.8 g | APTT (24 h): 15.8 s | Bas (24 h): 0% | Eos (24 h): 1% | Fbg (24 h): 206.6 mg/dL | Hb (24 h): 13.3 g/dL | Ht (24 h): 39.5% | Lym (24 h): 79.2% | MCH (24 h): 21.7 pg | MCHC (24 h): 33.7% | MCV (24 h): 64.3 fL | Mono (24 h): 6.6% | Neu (24 h): 13.6% | PT (24 h): 11.6 s | Plat (24 h): 108.6 x10_4/uL | RBC (24 h): 613.8 x10_4/ul | Ret (24 h): 8.9% | WBC (24 h): 89.3 x10_2/uL | KIDNEY_L (24 h): 1 g | KIDNEY_R (24 h): 1 g | KIDNEY_TOTAL (24 h): 2 g | LIVER (24 h): 10.2 g | ALP (24 h): 1017 IU/L | ALT (24 h): 33 IU/L | AST (24 h): 68 IU/L | CRE (24 h): 0.6 mg/dL | Ca (24 h): 11.1 mg/dL | Cl (24 h): 104.6 meq/L | DBIL (24 h): 0.012 mg/dL | GLC (24 h): 200.6 mg/dL | IP (24 h): 8.1 mg/dL | K (24 h): 4.6 meq/L | LDH (24 h): 109.6 IU/L | Na (24 h): 141.6 meq/L | PL (24 h): 155.2 mg/dL | RALB (24 h): 3.5 g/dL | TBIL (24 h): 0.3 mg/dL | TC (24 h): 87.8 mg/dL | TG (24 h): 82.6 mg/dL | TP (24 h): 5.5 g/dL | gamma-GTP (24 h): 1.4 IU/L
